Here are results for two compounds from patent publication US20200341000A1, “METHOD OF SCREENING COMPOUNDS FOR TREATING CNS DISORDERS” (SAGE THERAPEUTICS, INC., priority 2017, published 2020).

Assay [1] deals with plasma membrane GABAARs containing the α4 and β3 subunits. Description: Biotinylation, surface/total GABAAR subunits in hippocampal slices of WT mice. The assay is classed as cell-based. The procedure: (§1) Hippocampi were dissected out of acute slices from 8 to 12 week old C57/B16 mice and lysed with phosphate buffer including: 20 mM Tris-HCl, 150 mM NaCl, 5 mM EDTA, 10 mM NaF, 2 mM Na3VO4, 10 mM pyrophosphate, 0.1% SDS and 1% Triton after drug treatment. The β3 subunit was isolated using immunoprecipitation with β3 antibodies, after correction for protein content and the specific activity of labeling. Results were attained by SDS/PAGE followed by autoradiography (Abramian et al., 2010). For biotinylation experiments hippocampi were dissected out of acute slices from 8 to 12 week old C57/B16 mice and incubated in artificial cerebrospinal fluid (ACSF) described above at 30° C. for 1 h for recovery before experimentation. Slices were then placed on ice and incubated for 30 min with 1 mg/mL NHS-SS-biotin (Pierce). Excess biotin was removed by a 50 mM glycine quenching buffer, followed by washing of slices three times in ice-cold ACSF. The tissue was snap frozen on dry ice for 5 min, thawed at 4° C. and lysed. The lysates were solubilized with 2% Triton at 4° C. on a rotating wheel for 1 h. The insoluble material was removed by centrifugation, and 350-500 μg of protein lysate were incubated with NeutrAvidin beads (Pierce) for 18-24 h at 4° C. Bound material was eluted with sample buffer and subjected to SDS/PAGE and then immunoblotted with the indicated antibodies. Blots were then quantified using the CCD-based ChemiDoc XRS ? system. Antibodies against the β3 subunit and the phospho-β3 antibody were generated and verified by the laboratory of S.J.M. (Vien et al., 2015).
Hippocampal slices were treated as outlined above. Treated slices were then subject to biotinylation and lysis, and surface fractions were isolated on immobilized avidin. Surface (S) and total (T) fractions were immunoblotted with α4 and β3 subunit antibodies.
Consistent with the examples above, hippocampal slices from WT and S408/9A mice were treated for 20 min with 100 nM SGE-516 or vehicle (Con) and subjected to biotinylation followed by immunoblotting with β3 and α4 subunit antibodies. The ratio of surface/total (S/T) immunoreactivity was then normalized to levels seen in control (100%).

The test system of assay [2] is GABA receptor trafficking. Description: GABA receptor trafficking measured by GABAergic current density (FIG. 14). The assay is classed as cell-based. Conditions: measured by the GABAergic current density. The source says: As shown in above examples, not all neurosteroids can modulate GABA receptor trafficking.
Assay [3] has as its system GABAA receptor β3 subunit S408/9 phosphorylation. Description: Immunoblot of β3 S408/9 phosphorylation in hippocampal slices. The assay is classed as cell-based, mice. The conditions noted are these: 100 nM, 20 min, acute hippocampal slices. The procedure:
as §1
To produce antibodies specific for phosphorylated S443, rabbits were injected with a synthetic peptide corresponding to residues […] of the murine α4 subunit in which the serine residue corresponding to S443 was chemically phosphorylated; […]. Hippocampal slices were treated with vehicle (Con), or SGE-516 for 20 min. Slices were immunoblotted with pS408/9, β3, or actin antibodies. The ratio of pS408/9/β3 immunoreactivity was then normalized to control slices (100%=the line).
Hippocampal slices were treated with 100 nM ALLO or P4 (progesterone), and S408/9 phosphorylation was then determined as detailed above, n=4 slices (FIG. 18D). Hippocampal slices were treated with 100 nM ORG (FIG. 18E). S408/9 phosphorylation was examined using immunoblotting.

For assay [4], the system named is tonic current in dentate gyms granule cells (DGGCs). Nature of the assay: Acute (allosteric) modulation of tonic current in DGGCs of hippocampal slices. The format is cell-based, mice. Conditions: 100 nM, 10 min acute exposure, then 100 μM picrotoxin; mean±SEM. Here is the method:
Brain slices were prepared from 3- to 5-week-old male C57 mice. Mice were anesthetized with isoflurane, decapitated, and brains were rapidly removed and submerged in ice-cold cutting solution containing (mM): 126 NaCl, 2.5 KCl, 0.5 CaCl2, 2 MgCl2, 26 NaHCO3, 1.25 NaH2PO4, 10 glucose, 1.5 sodium pyruvate, and 3 kynurenic acid. Coronal 310 μm thick slices were cut with the vibratome VT1000S (Leica Microsystems, St Louis, Mo., USA). The slices were then transferred into incubation chamber filled with prewarmed (31-32° C.) oxygenated artificial cerebro-spinal fluid (ACSF) of the following composition (in mM): 126 NaCl, 2.5 KCl, 2 CaCl2, 2 MgCl2, 26 NaHCO3, 1.25 NaH2PO4, 10 glucose, 1.5 sodium pyruvate, 1 glutamine, 3 kynurenic acid and 0.005 GABA bubbled with 95% O2-5% CO2. Slices were allowed to recover at 32° C. for at least 1 hr before recording. Exogenous GABA was added in an attempt to standardize ambient GABA in the slice and provide an agonist source for newly inserted extrasynaptic GABAARs. […]
Whole-cell currents were recorded from the dentate gyms granule cells (DGGCs) in 310-μm-thick coronal hippocampal slices. […] A 5 min period for stabilization after obtaining the whole-cell recording conformation (holding potential of −60 mV) was allowed before currents were recorded using an Axopatch 200B amplifier (Molecular Devices), low-pass filtered at 2 kHz, digitized at 20 kHz (Digidata 1440A; Molecular Devices), and stored for offline analysis.
For tonic current measurements, an all-points histogram was plotted for a 10 s period before and during 100 μM picrotoxin application, once the response reached a plateau level. […] Series resistance and whole-cell capacitance were continually monitored and compensated throughout the course of the experiment. […] Spontaneous inhibitory post-synaptic currents (sIPSCs) were analyzed using the mini-analysis software (version 5.6.4; Synaptosoft, Decatur, Ga.). […] Only recordings with a minimum of 200 events fitting these criteria were analyzed. sIPSCs amplitude, and frequency from each experimental condition was pooled and expressed as mean±SEM. […]

Each structure is given as a SMILES string.

As to `CC(=O)[C@H]1CC[C@H]2[C@@H]3CC[C@H]4C[C@H](O)CC[C@]4(C)[C@H]3CC[C@]12C` [ALLO, Allopregnanolone], in assay [1] (100 nM, 20 min), the “GABAA-β3-containing receptors at the plasma membrane (surface β3/T-β3)” value is recorded as “increases”. Moreover, the “modulation of GABA receptor trafficking” value in assay [2] was “modulated GABA receptor trafficking”. In addition, the “β3 S408/409 phosphorylation (p-β3/T-β3)” value in assay [3] was “increases”. For the same compound, the “tonic current during acute exposure” value in assay [4] is 58.3±13.0 pA.
For the compound `C[C@@]1(O)CC[C@H]2[C@H](CC[C@@H]3[C@@H]2CC[C@]2(C)[C@@H](C(=O)Cn4nccn4)CC[C@@H]32)C1` [SGE-516], in assay [1] (100 nM, 20 min), the “GABAA-β3-containing receptors at the plasma membrane (surface β3/T-β3)” value is reported as “increases”. Also, the “plasma membrane levels of GABAARs containing α4 and β3 subunits, S/T normalized to control (100%)” value in assay [1] (100 nM, 20 min, WT mice) is recorded as 175-185%. The “plasma membrane accumulation of the α4 and β3 subunits” value in assay [1] (hippocampal slices, biotinylation) is on record as “increased”. In assay [2], the “modulation of GABA receptor trafficking” value is “modulated GABA receptor trafficking”. Also, the “β3 S408/409 phosphorylation (p-β3/T-β3)” value in assay [3] was “increases”. For the same compound, the “tonic current during acute exposure” value in assay [4] was 49.2±8.9 pA.
